Data published in patent publication US10948480B2, “Immunity to folate receptors” (priority 2006, dated 2021).
Several values for one entry are separate records, joined by “and”; a condition that tells them apart may be missing. Identical values can stand only once.

Tests used:
PBMCs (T cells) = assay: 10-day IFN-γ ELIspot for low-frequency T cells; assay type: cell-based, human; details: for Patients Proportion (%) responding: breast and ovarian cancer patients; for Patients Proportion (%) responding / Healthy Donor Proportion (%) responding: 10 μg/mL polypeptide, positive = p<0.05 vs no antigen and >1:100,000; for Healthy Donor Proportion (%) responding: healthy donors
Experimental: An equal volume of Hank's balanced salt solution (HBSS) was added to the blood samples. Twenty-five mL of diluted blood was overlaid onto 15 mL of Ficoll-Paque in a 50 mL conical test tube centrifuged at 374×g for 35 minutes at room temperature. Following centrifugation, the buffy coats were centrifuged (12 minutes, 216×g). The cell pellets were washed and resuspended in freezing media (RPMI supplemented with 12.5% HSA, penicillin, streptomycin, and 2 mM glutamine). Cells were adjusted to 20×10^6/mL cells, and an equal volume of cold 12.5% HSA RPMI containing 25% DMSO (Sigma D2650) was added. Cells were aliquoted and transferred to a −80° C. freezer. After overnight incubation, the vials were transferred to liquid nitrogen.
For in vitro assay, each vial of cells was thawed, and the contents were transferred to a test tube containing 12 mL of cell culture media. Following centrifugation, the cells were resuspended in 2-3 mL of medium, and viability was determined by dye exclusion. The mean number of PBMC purified from the blood of donors was 1.6±0.07×10^6 cells/mL of whole blood for healthy donors and 1.0±0.07×10^6/mL for cancer patients (p<0.0001). This cryopreservation and thawing procedure was optimized for recovery of antigen-specific T cell function (Disis et al., J. Immunol. Methods, 308(1-2):13-8 (2006)).
A 10-day ELIspot for detecting low-frequency T cells was used to determine reactivity to the FRα-derived polypeptides (Table 1). ELIspots were carried out in groups of two donors (two healthy donors, one healthy donor/one cancer patient, or two cancer patients). The assay was carried out as described elsewhere (Knutson et al., J. Clin. Invest., 107:477-84 (2001)). On day 1, 2.5×10^5 PBMCs/well were plated into 96-well plates in 3-well replicates in 200 μL of RPMI-1640 containing L-glutamine, penicillin, streptomycin, and 10% fetal calf serum (T-cell medium) in the presence or absence of 10 μg/mL polypeptide antigen. The cells were incubated at 37° C. and IL-2 (Zeptometric, Inc., Buffalo, N.Y.) was added to 10 U/mL on day 5. On day 8, 2.5×10^5/well irradiated autologous PBMCs and 10 μg/mL antigens were added. On day 9, the cells were transferred to an anti-IFN-γ-coated nitrocellulose (NC)-plate (Millipore Corporation, Bedford, Mass.). The NC-plate was incubated (37° C.) for a further 20-24 hours followed by washing three times using PBS containing 0.05% Tween-20. The plate was then incubated for 2.5 hours at RT in PBS with 5 μg/mL biotinylated anti-IFN-γ Ab, washed in PBS, and further incubated with 100 μL/well avidin-horseradish peroxidase (HRP, Vector Laboratories, Burlingame, Calif.)) for 2 hours at room temperature. After three washes in PBS, the plate was incubated with 100 μL/well HRP-colorimetric substrate (Vector Laboratories) for 20-30 minutes, rinsed with cool tap water, and allowed to dry completely. The nitrocellulose plates were read on an AID ELIspot reader (Cell Technology, Inc., Columbia, Md.; reader software v.3.1.1.). […] A 17-amino acid polypeptide (KISQAVHAAHAEINEAG; SEQ ID NO: 1) derived from chicken egg ovalbumin, produced in the same fashion as the FRα polypeptides, was used as a control polypeptide. […] The anti-IFN-γ and biotinylated anti-IFN-γ antibody pair were obtained from Mabtech (Sweden).
The T cell magnitude for each donor was summed across all 14 polypeptides which, along with the response multiplicity, was compared with age using regression. Student's t test was used for means unless the data were not normally distributed, in which case Mann-Whitney test was used. Fisher's Exact Test was used for comparing proportions. A proportion was considered elevated, relative to other polypeptides, if that proportion was statistically elevated relative to the mean proportion, 8.7%, which is the ratio of the total number of significant (p<0.05, two-tailed t test) polypeptide-specific responses over the total number of donors. […]

[1] = tested on: PBMC (CD4 and CD8 T cells); assay: IFN-γ cytokine flow cytometry; assay type: cell-based, human; details: PBMC from three patients that had responded to FR56
Experimental: PBMC were cultured with peptide (10 μg/mL) for seven days. IL-2 (20 U/mL) were added on Day 3. After seven days, the cells were distributed into a 96-well plate with fresh irradiated autologous PBMC. Either medium alone or medium supplemented with PHA-L (20 μg/well) or recall polypeptide (10 μg/well) was added to the appropriate wells for 29 hours. Golgi-Stop was added for the last five hours followed by washing in PBS-0.5% BSA. The cells were resuspended in the same buffer containing anti-CD4-FITC and anti-CD8-APC for 30 minutes, followed by washes and fixing. The cells were permeabilized alone or with unconjugated anti-human IFN-γ (adsorption control) followed by washing and incubation with anti-human anti-IFN-γ-APC for 30 minutes. The cells were washed, fixed, and analyzed using a BD Biosciences FACscan flow cytometer and CellQuest Pro Software (version 4.0.2., BD Biosciences). A response to antigen was considered as positive if there was at least a 50% increase in IFN-γ[…] cells, and it was blocked by the adsorption control.

[2] = tested on: antibodies in diluted serums; assay type: binding, human

| Substance | Patients Proportion (%) responding (PBMCs (T cells)) [%] | Healthy Donor Proportion (%) responding (PBMCs (T cells)) [%] | also measured |
| --- | --- | --- | --- |
| ACKRHFIQDTCLYECS (listed as Homo sapiens) [FR95] | 23 | 6 |  |
| CKSNWHKGWNWTSGFN (listed as Homo sapiens) [FR152] | 23 | 6 |  |
| DCEQWWEDCRTSYTCK (listed as Homo sapiens) [FR138] | 30 | 22 |  |
| KDVSYLYRFNWNHCGEMA (listed as Homo sapiens) [FR76] | 13 | 11 |  |
| KISQAVHAAHAEINEAG (listed as Gallus gallus) [ovalbumin-derived control polypeptide, reference compound] |  |  | responses in patients vs healthy donors (PBMCs (T cells); comparison of the two populations (FIG. 3A)): not different |
| LGPWIQQVDQSWRKERV (listed as Homo sapiens) [FR113] |  | 0 |  |
| LLVWVAVVGEAQTRI (listed as Homo sapiens) [FR12] | 7 | 6 |  |
| MTTQLLLLLVWVAVVGEAQ (listed as Homo sapiens) [FR5] | 17 | 6 |  |
| PWAAWPFLLSLALMLLWL (listed as Homo sapiens) [FR238] | 23 |  |  |
| QCRPWRKNACCSTNT (listed as Homo sapiens) [FR56] |  | 6 | patients with CD4 T cell response [1]: All three; patients with CD8 T cell response [1]: two of three; ELIspot response (PBMCs (T cells); healthy donor 15, no antigen control 5±1): 3±1 spots/well; recognition by ovarian vs breast cancer patients (PBMCs (T cells); p=0.05): recognized more often; ELIspot response (PBMCs (T cells); patient 37, mean±s.e.m., n=3, no antigen 26±2): 183±17 spots/well |
| RTELLNVCMNAKHHKEK (listed as Homo sapiens) [FR30] |  | 6 |  |
| RTSYTCKSNWHKGWNWT (listed as Homo sapiens) [FR147] | 40 | 22 |  |
| VARFYAAAMSGAGPWA (listed as Homo sapiens) [FR225] | 7 | 22 |  |
| VDQSWRKERVLNVPL (listed as Homo sapiens) [FR120] | 13 | 11 |  |
| WHKGWNWTSGFNKCAVGA (listed as Homo sapiens) [FR156] | 23 | 17 |  |
| tetanus toxin [TT] |  |  | Antibody responses [2]: 30 ± 4 µg/mL and 27 ± 4 µg/mL |
